# Structures can show the parent of a compound that is named as a salt.
# Assays:
# [1] = target: T1, dopamine receptors (^3 H-NPA binding sites) (Rattus norvegicus, UniProt P61169)
# [2] = target: T1, dopamine receptors (^3 H-NPA binding sites); assay: In vitro inhibition of ^3 H-NPA binding to rat striatal homogenate; settings: for reversal of inhibition of ^3 H-NPA binding by washing of membranes: FIG. 8
# [3] = system: striatal dopamine receptors; assay: Apomorphine-induced circling in unilateral striatectomized mice; assay type: in vivo
# Experimental: Among such induced behavioral characteristics are circling, climbing and stereotypy.
# Male albino mice in the weight range of 35-40 grams were used in the determination of circling behavior. The mice were prepared for circling experiments using standard stereotaxic techniques to place unilateral electrolesions in the right caudate-putamen (1.0 mm anterior to bregma, 2.0 mm lateral and 3.5 mm below the skull surface, 1.5 mA/15 s). […] Those mice circling less than 6 revolutions every 2 minutes were excluded from subsequent studies.
# dopamine receptors [4] = assay: Apomorphine-induced climbing in mice (climbing index); assay type: in vivo; settings: for effect on apomorphine climbing: 10 mg/kg s.c.; for effect on apomorphine climbing index: apomorphine 1.0 mg/kg s.c.
# Experimental: Climbing behavior was measured by placing mice in individual cages (20×15×15 cm) lined with wire mesh. A "climbing index", i.e., the percentage of time spent climbing during the 30-minute period following the first climb, was determined.
# dopamine receptors [5] = assay: Circling/asymmetry in rats after unilateral intrastriatal injection and apomorphine challenge; assay type: in vivo, rat
# Experimental: A further behavioral model utilized rats (male, Sprague-Dawley, 300±25 g). […] Bilateral guide cannulae were chronically implanted in the rats, using standard stereotaxic techniques, to allow drug/vehicle injection at the center of the caudate-putamen complex (Ant. 8.0, Lat. +3.0, Vert. +1.5, De Groot, 1959). Fourteen days after cannulation, the animals were manually restrained and the drug in a solvent vehicle was injected in a volume of 4 μliters (1 μliter/min) into the right and left striata, respectively. The 4 μliter contained dosages of 10 μg or 40 μg of the drug.
# The resting asymmetry was particularly evident when the animals were disturbed and was also noted two and five days after the injection of the (-)N-(2-chloroethyl)norapomorphine. By the seventh day the ipsilateral asymmetry was variable and was not apparent by the fourteenth day.
# Again, as in the circling experiments with the mice, it was apparent that the dopamine inhibitory actions of the drug endured for 2 to 4 days. The recovery of the behavioral response possibly reflects the resynthesis of dopamine receptors.
# dopamine receptors [6] = assay: Apomorphine-induced stereotypy; assay type: in vivo; settings: 10 mg/kg pretreatment; apomorphine 1 mg/kg
# Source text: Apomorphine-induced behavioral characteristics in the rodent are considered to involve dopamine agonist action on striatal and mesolimbic dopamine receptors. […] Among such induced behavioral characteristics are circling, climbing and stereotypy.
# [7] = target: T2, dopamine-sensitive adenylate cyclase (Rattus norvegicus, UniProt P18901); assay: Inhibition of activation of dopamine-sensitive adenylate cyclase in rat striatal homogenates; assay type: biochemical
# T2 sequence (P18901 whole entry): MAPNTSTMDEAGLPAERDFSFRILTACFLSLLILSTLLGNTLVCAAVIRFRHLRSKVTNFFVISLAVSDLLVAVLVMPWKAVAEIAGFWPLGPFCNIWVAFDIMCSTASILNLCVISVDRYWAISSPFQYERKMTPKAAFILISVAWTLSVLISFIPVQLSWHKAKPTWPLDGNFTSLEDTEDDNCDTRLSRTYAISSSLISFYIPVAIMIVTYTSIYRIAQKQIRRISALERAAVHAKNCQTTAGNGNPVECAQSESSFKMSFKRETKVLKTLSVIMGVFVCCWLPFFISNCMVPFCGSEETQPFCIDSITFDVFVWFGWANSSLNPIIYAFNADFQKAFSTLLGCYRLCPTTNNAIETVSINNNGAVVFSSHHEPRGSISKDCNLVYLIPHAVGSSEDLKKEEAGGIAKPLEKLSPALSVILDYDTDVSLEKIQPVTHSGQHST
# T2 sequence (Q04400 whole entry partner): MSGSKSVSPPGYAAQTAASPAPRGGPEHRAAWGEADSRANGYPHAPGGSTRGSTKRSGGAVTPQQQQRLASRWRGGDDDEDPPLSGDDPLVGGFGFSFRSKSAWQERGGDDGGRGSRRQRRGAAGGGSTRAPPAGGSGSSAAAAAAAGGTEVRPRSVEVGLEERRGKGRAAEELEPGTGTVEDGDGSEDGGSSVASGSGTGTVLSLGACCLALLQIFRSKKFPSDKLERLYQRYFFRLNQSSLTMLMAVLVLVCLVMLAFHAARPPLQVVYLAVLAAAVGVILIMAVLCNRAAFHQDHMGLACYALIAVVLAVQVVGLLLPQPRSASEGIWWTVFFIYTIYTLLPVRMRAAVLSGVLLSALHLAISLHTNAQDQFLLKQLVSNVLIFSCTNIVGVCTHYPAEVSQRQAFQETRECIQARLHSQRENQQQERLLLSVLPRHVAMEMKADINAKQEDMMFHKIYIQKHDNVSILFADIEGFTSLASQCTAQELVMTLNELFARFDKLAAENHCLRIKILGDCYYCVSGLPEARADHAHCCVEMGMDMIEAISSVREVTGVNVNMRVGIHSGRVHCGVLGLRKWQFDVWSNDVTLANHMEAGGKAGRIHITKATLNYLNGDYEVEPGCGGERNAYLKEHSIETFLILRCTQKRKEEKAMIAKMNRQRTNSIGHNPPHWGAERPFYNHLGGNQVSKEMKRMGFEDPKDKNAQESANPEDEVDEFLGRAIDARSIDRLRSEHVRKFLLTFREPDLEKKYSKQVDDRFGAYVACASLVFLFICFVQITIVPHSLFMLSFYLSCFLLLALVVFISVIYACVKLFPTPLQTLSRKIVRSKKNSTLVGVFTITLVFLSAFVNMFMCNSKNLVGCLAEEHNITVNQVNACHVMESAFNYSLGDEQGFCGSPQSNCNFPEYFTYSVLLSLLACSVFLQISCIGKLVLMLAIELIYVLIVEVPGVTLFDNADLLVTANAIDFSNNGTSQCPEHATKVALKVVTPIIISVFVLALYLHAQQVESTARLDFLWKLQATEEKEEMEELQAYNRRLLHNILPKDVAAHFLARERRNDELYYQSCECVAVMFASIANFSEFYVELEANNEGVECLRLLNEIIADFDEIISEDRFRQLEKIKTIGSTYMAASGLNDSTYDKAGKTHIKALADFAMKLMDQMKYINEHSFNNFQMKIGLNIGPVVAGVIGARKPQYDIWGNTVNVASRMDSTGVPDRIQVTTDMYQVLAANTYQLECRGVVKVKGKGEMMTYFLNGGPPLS
# Experimental: Washed tissue, including one specimen without NCA as a control, was then incubated with zero or 50 μM of dopamine in the presence of an excess of adenosine triphosphate for 2.5 minutes at 37° and the level of cyclic adenosine monophosphate in the incubation mixture with and without dopamine was assayed by a protein binding method. The increase in cyclic adenosine monophosphate levels due to the dopamine was estimated for all conditions.
# [8] = target: T2, dopamine-sensitive adenylate cyclase; settings: Walton et al., Eur. J. Pharmacol. 52: 231 (1978); cited from earlier work
# T1 sequence (P61169 whole entry): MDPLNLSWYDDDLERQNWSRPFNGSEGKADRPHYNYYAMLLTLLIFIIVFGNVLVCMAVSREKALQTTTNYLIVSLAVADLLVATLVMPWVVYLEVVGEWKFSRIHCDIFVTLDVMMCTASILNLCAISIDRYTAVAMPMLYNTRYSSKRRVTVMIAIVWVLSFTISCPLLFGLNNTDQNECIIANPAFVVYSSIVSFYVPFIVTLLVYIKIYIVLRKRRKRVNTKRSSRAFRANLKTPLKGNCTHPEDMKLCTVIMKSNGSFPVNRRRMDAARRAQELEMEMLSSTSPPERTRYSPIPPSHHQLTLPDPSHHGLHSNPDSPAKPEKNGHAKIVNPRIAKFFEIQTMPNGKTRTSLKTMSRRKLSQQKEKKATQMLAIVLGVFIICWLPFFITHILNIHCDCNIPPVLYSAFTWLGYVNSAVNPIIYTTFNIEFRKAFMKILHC
smiles,measurement,setting,value
"CCCN1CCc2cccc3c2C1Cc1ccc(O)c(O)c1-3 (single isomer, unassigned) [^3 H-NPA, ^3 H-N-n-propylnorapomorphine, reference compound]",density of ^3 H-NPA binding sites,[1],approximately 180 fmol/mg protein
same,Bmax,[2],190 fmol/mg protein
CN1CCc2cccc3c2[C@H]1Cc1ccc(O)c(O)c1-3 [apomorphine],circling behavior,"[3]; 0.25-1 mg/kg apomorphine, dose-dependent",2-10 revolutions every 12 minutes
OCCN1CCc2cccc3c2[C@H]1Cc1ccc(O)c(O)c1-3 [(-)N-(2-hydroxyethyl)norapomorphine.HCl],effect on apomorphine climbing,dopamine receptors [4]; 90-minute pretreatment,failed to modify apomorphine climbing
same,reversal of inhibition of ^3 H-NPA binding by washing of membranes,[2]; 5×10^-7 M,reversed
Oc1ccc2c(c1O)-c1cccc3c1[C@@H](C2)N(CCCl)CC3 [NCA],inhibition of apomorphine-induced circling,"[3]; 1.0 mg/kg s.c., apomorphine 0.5 mg/kg s.c., 4 hours to 7 days after administration",essentially no inhibition
same,reduction in circling,"[3]; higher dosage levels (2.0 or 4.0 mg/kg s.c.), after 2 days",still apparent
same,reduction in circling,"[3]; highest dosage level (4.0 mg/kg s.c.), after 5 days",39%
same,circling on apomorphine challenge,"dopamine receptors [5]; 40 μg intrastriatal, apomorphine 0.5 mg/kg s.c., four hours and two days, to a lesser extent 5 days after administration",precipitated a clear circling behavior
same,ipsilateral asymmetry/circling movements after unilateral injection into the caudate-putamen,dopamine receptors [5]; 10 and 40 μg intrastriatal,induced ipsilateral asymmetry/circling movements within an hour
same,resting ipsilateral asymmetry,dopamine receptors [5]; fourteenth day,not apparent
same,resting ipsilateral asymmetry,dopamine receptors [5]; seventh day,variable
same,resting ipsilateral asymmetry,dopamine receptors [5]; two and five days after injection,noted
same,effect on apomorphine climbing index,dopamine receptors [4]; 10 mg/kg i.p. pretreatment,reduced this index
same,effect on apomorphine climbing index,dopamine receptors [4]; 20 mg/kg i.p. pretreatment,greatly reduced
same,duration of reduction of climbing index,dopamine receptors [4]; after i.p. administration,up to between four and five days
same,"effect on submaximal stereotypic effect of apomorphine (repetitive sniffing, periodic biting, continuous biting)",dopamine receptors [6],failed to modify
same,percent dopamine stimulation of cAMP production at 10 µM,"[7]; 10 min, NCA 10 μM, 10 min 37° C. preincubation, washed, 50 μM dopamine",84%
same,percent dopamine stimulation of cAMP production at 30 µM,"[7]; 10 min, NCA 30 μM, 10 min 37° C. preincubation, washed, 50 μM dopamine",44%
same,percent dopamine stimulation of cAMP production at 75 µM,"[7]; 10 min, NCA 75 μM, 10 min 37° C. preincubation, washed, 50 μM dopamine",8%
same,inhibition at 10 µM,[7]; NCA 10 μM,16%
same,inhibition at 30 µM,[7]; NCA 30 μM,56%
same,inhibition at 75 µM,[7]; NCA 75 μM,92%
same,reduction of number of ^3 H-NPA binding sites,"[1]; 40 μg NCA intrastriatal, day 2",approximately 50%
same,number of sites available for ^3 H-NPA binding,"[1]; 40 μg NCA intrastriatal, days 7 and 14",returned to control values
same,IC50,[2],1800 nM
same,reversal of inhibition of ^3 H-NPA binding by washing of membranes,[2]; 5×10^-6 M,not reversed
same,reversal of prevention of ^3 H-NPA binding by washing,"[2]; NCA 10^-5 M, repeated washing",not reversed by repeated washing
same,inhibition of ^3 H-NPA binding in the presence of blocking agents,"[2]; high concentrations of phentolamine and propranolol, NCA 3×10^-5 M",also apparent
CC(COc1ccccc1)N(CCCl)Cc1ccccc1 (centres unmarked) [phenoxybenzamine],action on dopamine-sensitive adenylate cyclase,[8],irreversible blocking action
"COc1ccc2c(c1OC(C)=O)-c1cc(O)cc3c1C(C2)N(C(=O)CN(CCCl)CCCl)CC3 (centres unmarked) [6-[2-bis(2-chloroethyl)amino]acetyl-11-acetoxy-2-hydroxy-10-methoxy-apoporphine hemihydrate, reference compound]",effect on apomorphine climbing,dopamine receptors [4]; four-hour pretreatment,failed to modify apomorphine climbing
"COc1ccc2c(c1O)-c1cccc3c1[C@@H](C2)N(CCCl)CC3 [(-)N-(2-chloroethyl)norapocodiene.HCl, reference compound]",effect on apomorphine climbing,dopamine receptors [4]; four-hour pretreatment,failed to modify apomorphine climbing

# Source: patent publication US4353912A, “N-Haloalkyl nor apomorphines and method of inactivating dopamine receptor sites and enhancing dopaminergic activity therewith” (Northeastern University, priority 1980, dated 1982)
